# Experimental data published in article PMC3842914, “Meleagrin, a New FabI Inhibitor from Penicillium chryosogenum with at Least One Additional Mode of Action” (PLoS ONE, 2013).
# Like-named read-outs stand apart in the source and are kept apart here.
# Key:
# [1] = tested on: S. pneumoniae KCTC 3932; assay: MIC by broth microdilution, S. pneumoniae KCTC 3932; assay type: cell-based; details: Streptococcus pneumoniae
# Description: (§1) Whole-cell antimicrobial activity was determined by broth microdilution as described previously. The test strains except for S. pneumoniae were grown to mid-log phase in Mueller–Hinton broth and diluted 1,000-fold in the same medium. Cells (10^5/mL) were inoculated into Mueller–Hinton broth and dispensed at 0.2 mL/well into a 96-well microtiter plate. S. pneumoniae was grown in tryptic soy broth supplemented with 5% sheep blood. MICs were determined in triplicate by serial 2-fold dilutions of test compounds. […] Bacterial growth was determined by measuring the absorption at 650 nm by using a microtiter ELISA reader.
# [2] = tested on: S. aureus RN4220; assay: MIC by broth microdilution, S. aureus RN4220 (wild type); assay type: cell-based, Staphylococcus aureus; details: for MIC: Staphylococcus aureus, S. aureus RN4220 (wild type); for Antibacterial activity relative to compound 1: against S. aureus RN4220 and E. coli KCTC 1924
# Description: as §1
# [3] = target: T1, S. pneumoniae FabK (Streptococcus pneumoniae, UniProt Q9FBC5); assay: S. pneumoniae FabK enzyme assay; assay type: biochemical
# T1 sequence (Q9FBC5 1-324): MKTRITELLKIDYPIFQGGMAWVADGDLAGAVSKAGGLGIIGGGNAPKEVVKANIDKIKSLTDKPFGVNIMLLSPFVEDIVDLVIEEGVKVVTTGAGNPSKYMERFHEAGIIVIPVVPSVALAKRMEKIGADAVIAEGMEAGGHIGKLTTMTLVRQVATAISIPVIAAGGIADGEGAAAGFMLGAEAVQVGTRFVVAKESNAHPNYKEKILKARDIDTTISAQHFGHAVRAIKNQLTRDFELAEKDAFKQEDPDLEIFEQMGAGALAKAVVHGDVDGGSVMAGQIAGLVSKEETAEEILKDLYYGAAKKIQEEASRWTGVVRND
# Description: (§2) S. aureus FabI and E. coli FabI enzymes were cloned, overexpressed, and purified as described previously. The wild-type fabK gene was amplified by PCR from genomic DNA obtained from Streptococcus pneumoniae KCTC 5412 by using the primers 5′-[…]-3′ and 5′-[…]-3′, which contained NdeI and XhoI restriction sites, respectively. After the DNA sequence was confirmed, the gene was cloned into the pET22b vector (Novagen, Gibbstown, NJ, USA). The construct was transformed into E. coli BL21 (DE3) for expression following induction with isopropylthiogalactoside. The C-terminal His-tagged protein was purified as described previously. Assays were conducted in half-area, 96-well microtiter plates. The compounds were dissolved in DMSO and evaluated in 100-μL assay mixtures containing components specific for each enzyme (see below). Reduction of the trans-2-octenoyl N-acetylcysteamine (t-o-NAC thioester) substrate analog was measured spectrophotometrically following the utilization of NADH or NADPH at 340 nm at 30°C for the linear period of the assay. S. aureus FabI assays contained 50 mM sodium acetate (pH 6.5), 200 μM t-o-NAC thioester, 200 μM NADPH, and 150 nM S. aureus FabI.
# (§3) NADH was used as a cofactor rather than NADPH for the E. coli FabI assay. Substrate concentrations used for the Lineweaver–Burk plot were 100, 200, 300, and 400 μM, whereas the concentrations of the cofactor were 100, 200, 400, and 600 μM. The rate of decrease in the amount of NADPH in each reaction was measured with a microtiter enzyme-linked immunosorbent assay (ELISA) reader by using the SOFTmax PRO software (Molecular Devices, Sunnyvale, CA, USA). The inhibitory activity was calculated according to the following formula: % of inhibition = 100× [1− (rate in the presence of compound/rate in the untreated control)]. IC50 values were calculated by fitting the data to a sigmoid equation. An equal volume of DMSO solvent was used for the untreated control. FabK assays contained 100 mM sodium acetate (pH 6.5), 2% glycerol, 200 mM NH4Cl, 50 µM t-o-NAC thioester, 200 µM NADH, and 150 nM S. pneumoniae FabK.
# [4] = tested on: S. aureus RN4220 (pE194-fabI); assay: Overexpression assay, MIC for fabI-overexpressing S. aureus RN4220 (pE194-fabI); assay type: cell-based; details: Staphylococcus aureus, read-out: MIC S. aureus (pE194-fabI)
# Description: as §1
# (§4) An overexpression assay using S. aureus RN4220, S. aureus RN4220 (pE194), and S. aureus RN4220 (pE194-fabI) was conducted to perform target validation of FabI inhibitors as described previously. Additionally, both fabI- and fabK-overexpressing E. coli were constructed to test a multitarget effect of the compounds. The wild-type fabI gene from the genomic DNA of E. coli W3110 was amplified by PCR by using the primers 5′-[…]-3′ and 5′-[…]-3′. The wild-type fabK gene from the genomic DNA of S. pneumoniae KCTC 5412 was amplified by PCR by using the primers 5′-[…]-3′ and 5′-[…] […]-3′. The resulting products were cloned into the pBAD-TOPO TA expression vector (Invitrogen, Carlsbad, CA, USA) to yield the pBAD-fabI and pBAD-fabK recombinant plasmids, which placed the expression of the genes fabI and fabK, respectively, under the control of the arabinose promoter. Recombinant pBAD-fabI and pBAD-fabK were then introduced into the pump-negative (tolC) E. coli EW1b via electroporation to generate E. coli EW1b (pBAD-fabI) and E. coli EW1b (pBAD-fabK), respectively.
# [5] = tested on: E. coli KCTC 1924; assay: MIC by broth microdilution, E. coli KCTC 1924; assay type: cell-based; details: Escherichia coli
# Description: as §1
# [6] = target: T2, E. coli FabI (Escherichia coli, UniProt P0AEK4); assay: E. coli FabI enzyme assay (NADH as cofactor); assay type: biochemical
# T2 construct: made in house
# Description: as §2, §3
# [7] = tested on: S. aureus RN4220 (pE194); assay: Overexpression assay, MIC for vector-containing S. aureus RN4220 (pE194); assay type: cell-based; details: Staphylococcus aureus, read-out: MIC S. aureus (pE194)
# Description: as §1, §4
# [8] = target: T3, S. aureus FabI (Staphylococcus aureus, UniProt Q6GI75); assay: S. aureus FabI enzyme assay (NADPH use at 340 nm, t-o-NAC thioester substrate); assay type: biochemical
# T3 construct: made in house
# T3 sequence (Q6GI75 1-256): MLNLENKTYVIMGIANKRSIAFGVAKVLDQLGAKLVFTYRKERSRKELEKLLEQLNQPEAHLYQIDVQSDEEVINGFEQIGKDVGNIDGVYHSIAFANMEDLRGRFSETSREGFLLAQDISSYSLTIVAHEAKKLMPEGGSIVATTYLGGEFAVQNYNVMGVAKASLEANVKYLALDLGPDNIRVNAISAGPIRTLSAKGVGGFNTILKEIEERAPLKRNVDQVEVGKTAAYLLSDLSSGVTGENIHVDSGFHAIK
# Description: as §2, §3
# [9] = KCTC3932, read-out: MIC S. pneumoniae
# [10] = KCTC1924, read-out: MIC E. coli
# [11] = KCTC3932, S. pneumoniae KCTC 3932, read-out: MIC S. pneumoniae
# [12] = KCTC1924, E. coli KCTC 1924, read-out: MIC E. coli
# [13] = S. pneumoniae FabK, read-out: IC50 spFabK
# [14] = S. aureus FabI, read-out: IC50 saFabI
# [15] = with respect to trans-2-octenoyl N-acetylcysteamine
# T2 sequence (P0AEK4 whole entry): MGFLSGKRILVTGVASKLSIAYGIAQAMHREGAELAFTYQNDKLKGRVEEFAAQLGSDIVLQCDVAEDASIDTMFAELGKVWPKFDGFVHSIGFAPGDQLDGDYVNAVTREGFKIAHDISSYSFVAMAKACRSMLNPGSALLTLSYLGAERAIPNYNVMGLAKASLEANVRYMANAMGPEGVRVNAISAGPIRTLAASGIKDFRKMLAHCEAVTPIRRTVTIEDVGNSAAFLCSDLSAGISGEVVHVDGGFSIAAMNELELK
Structure (SMILES),"MIC [1, 9] [µg/mL]",MIC [2] [µg/mL],Antibacterial activity relative to compound 1 [2],IC50 [3] [µM],MIC [4] [µg/mL],"MIC [5, 10] [µg/mL]",IC50 [6] [µM],MIC [7] [µg/mL],IC50 [8] [µM],"MIC [1, 11] [µg/mL]","MIC [5, 12] [µg/mL]","MIC ([5]; KCTC1924, 24 h, read-out: MIC E. coli) [µg/mL]","IC50 [3, 13] [µM]","IC50 [8, 14] [µM]",Ki ([8]; with respect to NADPH) [µM],"Ki [8, 15] [µM]",Mode of FabI inhibition ([8]; with respect to NADPH),"Mode of FabI inhibition [8, 15]"
"C=CC(C)(C)C12C=C(OC)C(=O)N3/C(=C/c4cnc[nH]4)C(=O)N(C)C31Nc1ccccc12 (centres unmarked) [Compound 6, O,N^14-dimethylglandicolin]",16,16,2–4 times,> 200,128,8,15.4,16,13.1,,,,,,,,,
"C=CC(C)(C)C12C=C(OC)C(=O)N3/C(=C/c4cnc[nH]4)C(=O)NC31N(OC)c1ccccc12 (centres unmarked) [Compound 3, oxaline]",,64,,> 200,256,,38.8,64,38.7,64,32,,,,,,,
"Oc1cc(Cl)ccc1Oc1ccc(Cl)cc1Cl [Triclosan, reference compound]",64,0.01,,> 200,1.6,0.01,,0.01,,,,0.02,,,,,,
C=CC(C)(C)C12C=C(O)C(=O)N3/C(=C/c4cnc[nH]4)C(=O)NC31Nc1c(Br)cccc12 (centres unmarked) [Compound 7],,> 128,,,,,> 200,,,> 128,> 128,,> 200,> 200,,,,
"C=CC(C)(C)C12C=C(OC)C(=O)N3/C(=C/c4cnc[nH]4)C(=O)N(C)C31N(OC)c1ccccc12 (centres unmarked) [Compound 5, O,N^14-dimethylmeleagrin]",,16,2–4 times,,128,,15.6,16,,16,8,,> 200,13.5,,,,
"C=CC(C)(C)C12C=C(O)C(=O)N3/C(=C/c4cnc[nH]4)C(=O)N(C)C31N(OC)c1ccccc12 (centres unmarked) [Compound 4, N^14-methylmeleagrin]",64,64,,> 200,256,32,33.1,64,48,,,,,,,,,
"C=CC(C)(C)C12C=C(O)C(=O)N3/C(=C/c4cnc[nH]4)C(=O)NC31N(OC)c1ccccc12 (centres unmarked) [Compound 1, meleagrin]",64,64,,> 200,256,32,33.2,64,40.1,,,,,,32.3,39.8,mixed inhibition,mixed
